Test results taken from US10858331B1, “Ester nitrates derivatives of aromatic aldehydes with multiple pharmalogic properties to treat sickle cell disease” (VIRGINIA COMMONWEALTH UNIVERSITY, priority 2013, dated 2020).

Experiments:
Hb [1] = biological target: T1, Hb (Homo sapiens, UniProt P68871+P69905); test: Oxygen equilibrium curve (OEC) study with normal whole blood (AA); assay type: cell-based; details: for ΔP50: versus DMSO control
T1 construct: normal whole blood (AA); from tissue; host or cells: normal whole blood (AA), red blood cells
Protocol: (§1) Studies were performed on compounds TD-7, TD-7-1, TD-8, TD-8-1, TD-9 and TD-9-1 using 100 mM stock solution in DMSO and normal whole blood (AA). TD-7, TD-8 and TD-9 are compounds with a hydroxymethyl group on the pyridine ring, while TD-7-1, TD-8-1 and TD-9-1 are the respective nitrate ester derivatives. The whole blood samples had hematocrit values ranging from 29-36%, and cell-free purified Hb of 10-12 g/dL in the absence or presence of effectors solubilized in DMSO at 2 mM or in some cases with varying compound concentration. The blood samples were incubated in an IL 237 tonometer (Instrumentation Laboratories, Inc., Lexington, Mass.) for about 5-7 min at 37° C. against a gas mixture containing O2 concentrations of 0.804%, 2.935% and 5.528% and allowed to equilibrate at O2 tensions of 6, 20 and 40 mmHg. After equilibration, the sample was removed via syringe and aspirated into a ABL 700 series table top automated blood gas analyzer (Radiometer America, Inc., Westlake, Ohio) to determine total hemoglobin (tHb), hematocrit (Hct), pH, pCO2, partial pressure of oxygen (pO2), and the Hb oxygen saturation values (sO2). Similar procedures were followed for concentration and time dependence studies. The measured values of pO2 and sO2 at each oxygen saturation level were then subjected to a non-linear regression analysis using the program Scientist (Micromath, Salt Lake City, Utah) with the following equation: […]
This equation was used to calculate P50 and Hill coefficient (N) values. Corresponding control experiments without the test compound (P50control) but containing DMSO were also performed.

cell-free Hb = biological target: T2, cell-free Hb (Homo sapiens, UniProt P68871+P69905); test: OEC study with normal cell-free Hb; assay type: biochemical; details: cell-free Hb 12 mg/mL, 2 mM compound; for N (Hill coefficient) / P50: n = 1; for ΔP50: versus control P50 12.5
T2 construct: Hemoglobin was prepared from centrifuging human blood; from tissue; host or cells: human blood (red cells lysed, Hb purified on DEAE sephacel)
Protocol: as §1
Hemoglobin was prepared from centrifuging human blood at 2500 rpms for 20 min at 4° C. The supernatant solution, debris and plasma were discarded from the centrifuge bottles, leaving behind RBCs. The RBCs were washed thrice with an excess volume of 0.9% NaCl, and once with 1.0% NaCl, each time centrifuging and discarding the supernatant solution. The RBCs were pooled together into a chilled flask and hemolyzed to free Hb by adding 1-2 volume excess of 50 mM Tris buffer, pH 8.6 (containing EDTA). The mixture was allowed to stand in ice for 30 min with occasional stirring. The Hb solution was centrifuged at 10,000 rpm for 2 h at 4° C. The supernatant Hb solution was pooled into a chilled flask and NaCl (40-60 mg/mL Hb solution) was slowly added with stirring. Hemoglobin solution was centrifuged at 10,000 rpm for 2 h at 4° C. to remove any cell stroma remnants. The clear supernatant Hb solution was pooled into a chilled flask and the “syrupy” pellet was discarded. Hemoglobin solution was dialyzed against 50 mM Tris buffer, pH 8.6 (containing EDTA) at 4° C. to remove NaCl and/or other low molecular weight impurities. Strips of standard cellulose dialysis tubing that had been washed 3-4 times and boiled for 10 min in deionized water were used for dialysis. The dialyzed Hb was further purified by ion-exchange chromatography using DEAE sephacel to exclude 2,3-DPG. The resin was equilibrated with 50 mM Tris buffer, pH 8.6, and the Hb solution was run through the column with 50 mM Tris buffer, pH 8.6 (containing EDTA). The pooled fractions were concentrated with an Amicon stirred cell (Amicon, Model 402), to a final HbA concentration of about 80-120 mg/mL. Concentrated HbA was stored at −80° C.
As a result of the low left-shifting activities of TD-8 and TD-9, as well as the nitrate ester derivatives, we further evaluated the activity of the compounds TD-1, TD-7, TD-7-1, TD-8, and TD-9 using cell-free Hb (devoid of any proteins, enzymes, plasma and cell membranes) to determine whether plasma protein or RBC membrane could have any effect on compound biological activity. Previous studies have shown limited effect of plasma protein and RBC membrane on SHMF activity. The same tonometry procedure used on whole blood was used with the cell-free hemoglobin using 2 mM compound and 12 mg/mL of Hb.

SS cells = test: In vitro RBC anti-sickling (morphological) study with SS cells; assay type: cell-based, human; details: SS cells, 1 h air then 4% O2, 37° C., 5 h; for inhibition at 500 µM / inhibition at 1000 µM / inhibition at 2000 µM / inhibition at 5000 µM: Homo sapiens, read-out: Inhibition of sickled cells; for inhibition at 1000 µM: 1.0 mM; for inhibition at 2000 µM: 2.0 mM; for inhibition at 5000 µM: 5.0 mM
Protocol: In vitro RBC morphological (anti-sickling) analysis was conducted at the Children's Hospital of Philadelphia (by Drs. Toshio Asakura and Osheiza Abdulmalik). The anti-sickling effects of 5HMF, TD-7 HCl, TD-7, TD-1, and TD-7-1 were studied by incubating suspensions of SS cells in the absence or presence of three different concentrations of the effectors in the presence of air for 1 h at 37° C. followed by incubation under 4% oxygen at 37° C. for 5 h. All samples were pre-incubated for 1 h with various compounds and then incubated under 4% O2 for 5 h. […] Table 5 represents the concentrations of the effectors along with the % inhibition of sickling cells. The hemolysates that had been prepared from SS cells after incubation with test compounds were also subjected to cation-exchange HPLC as previously reported (Abdulmalik et al., 2005).

Hb [2] = biological target: T1, Hb; test: Time-dependent OEC study with whole blood; assay type: cell-based; details: 0.5 mM; for P50: whole blood (Hct~34%); for N (Hill coefficient) / ΔP50: whole blood
Protocol: as §1
All samples were pre-incubated with whole blood (Hct˜34%) with the specified compounds 0.5 mM concentrations for the specified time. The control experiment without test compound (P50 (control)) contains the same concentration of DMSO used to solubilize the test solution (P50 (sample)).

[3] = 2 mM compound, 1.5 h incubation
[4] = 2 mM compound, 1.5 h incubation, 37° C.

T2 sequence (P69905 2-142 limits assumed): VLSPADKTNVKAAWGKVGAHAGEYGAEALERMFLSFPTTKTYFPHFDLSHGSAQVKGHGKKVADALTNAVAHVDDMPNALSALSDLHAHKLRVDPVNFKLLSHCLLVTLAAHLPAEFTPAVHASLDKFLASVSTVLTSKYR
T2 sequence (P68871 2-147 limits assumed): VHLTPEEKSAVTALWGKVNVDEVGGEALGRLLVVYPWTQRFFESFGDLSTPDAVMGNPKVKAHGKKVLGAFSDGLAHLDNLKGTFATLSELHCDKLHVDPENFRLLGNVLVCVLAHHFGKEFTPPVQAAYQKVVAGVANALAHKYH
T1 sequence (P69905 2-142 limits assumed): as the sequence (P69905 2-142 limits assumed) above
T1 sequence (P68871 2-147 limits assumed): as the sequence (P68871 2-147 limits assumed) above

Row | Compound | N (Hill coefficient) (Hb [1]; [3]) | P50 (Hb [1]; [4]) | ΔP50 (Hb [1]; [3]) [mmHg] | N (Hill coefficient) (cell-free Hb) | P50 (cell-free Hb) [mmHg] | ΔP50 (cell-free Hb) [mmHg] | inhibition at 500 µM (SS cells; 0.5 mM) [%] | inhibition at 1000 µM (SS cells) [%] | inhibition at 2000 µM (SS cells) [%] | P50 (Hb [2]; incubation 1 h) [mmHg] | P50 (Hb [2]; incubation 2 h) [mmHg] | P50 (Hb [2]; incubation 4 h) [mmHg] | P50 (Hb [2]; incubation 6 h) [mmHg] | P50 (Hb [2]; incubation 10 h) [mmHg] | P50 (Hb [2]; incubation 12 h) [mmHg] | N (Hill coefficient) (Hb [2]; incubation 1 h) | ΔP50 (Hb [2]; incubation 1 h) [mmHg] | N (Hill coefficient) (Hb [2]; incubation 2 h) | ΔP50 (Hb [2]; incubation 2 h) [mmHg] | inhibition at 5000 µM (SS cells) [%] | other results
1 | COc1ccc(C=O)cc1OCc1cccc(CO)n1 [TD-8, 3-((6-(Hydroxymethyl)pyridine-2-yl)methoxy)-4-methoxybenzaldehyde] | 1.9 ± 0.1^c† | 25.9 ± 2.5^c† mmHg | −5.4 | 1.9 | 7.6 | −4.9 | 14 | 20 | 38 |  |  |  |  |  |  |  |  |  |  |  | 
2 | COc1ccc(C=O)c(OCc2cccc(CO)n2)c1 [TD-9, 2-((6-(Hydroxymethyl)pyridin-2-yl)methoxy)-4-methoxybenzaldehyde] | 1.6 ± 0.3^c† | 21.1 ± 1.2^c† mmHg | −10.2 | 1.7 | 6.8 | −5.7 | 26 | 35 | 57 |  |  |  |  |  |  |  |  |  |  |  | 
3 | O=Cc1ccc(CO)o1 [Compound 5HMF, 5-(hydroxymethyl) furfural, reference compound] | 1.8 ± 0.1^c† | 20.2 ± 2.0^c† mmHg | −11.1 | 2.0 | 8.3 | −4.2 | 4 | 17 | 35 | 29.8 ± 0.2 | 29.2 ± 0.3 | 29.2 ± 0.1 | 30.0 ± 0.1 | 31.8 ± 0.1 | 32.8 ± 0.1 | 2.2 ± 0.1 | −2.9 | 2.2 ± 0.1 | −3.8 | 75 | N (Hill coefficient) (Hb [2]; incubation 4 h): 2.1 ± 0.1; ΔP50 (Hb [2]; incubation 4 h): −3.9 mmHg; N (Hill coefficient) (Hb [2]; incubation 6 h): 2.1 ± 0.1; ΔP50 (Hb [2]; incubation 6 h): −4.2 mmHg; N (Hill coefficient) (Hb [2]; incubation 10 h): 2.1 ± 0.1; ΔP50 (Hb [2]; incubation 10 h): −3.3 mmHg; N (Hill coefficient) (Hb [2]; incubation 12 h): 2.0 ± 0.1; ΔP50 (Hb [2]; incubation 12 h): −3.3 mmHg
4 | COc1ccc(OCc2cccnc2)c(C=O)c1 [INN-312, reference compound] |  |  |  |  |  |  |  |  |  |  |  |  |  |  |  |  |  |  |  |  | Inhibition of sickled cells (SS cells; 0.5 mM): 15%
5 | COc1cc(C=O)ccc1O [vanillin, reference compound] |  |  |  |  |  |  |  |  |  |  |  |  |  |  |  |  |  |  |  | 12 | 
6 | COc1ccc(OCc2cccc(CO)n2)c(C=O)c1 [TD-7, 2-((6-(Hydroxymethyl)pyridin-2-yl)methoxy)-5-methoxybenzaldehyde] | 1.3 ± 0.3^c† | 14.3 ± 4.3^c† mmHg | −17.0 | 1.8 | 7.6 | −4.9 | 95 | 95 | 100 | 28.2 ± 0.9 | 28.2 ± 0.8 | 28.8 ± 0.6 | 29.1 ± 0.6 | 30.6 ± 1.0 | 31.1 ± 0.7 | 2.2 ± 0.2 | −4.5 | 2.1 ± 0.1 | −4.8 | 100 | N (Hill coefficient) (Hb [1]; 0.1 mM compound): 2.5^d*; P50 (Hb [1]; 0.1 mM compound): 30.1^d* mmHg; ΔP50 (Hb [1]; 0.1 mM compound): −0.5 mmHg; N (Hill coefficient) (Hb [1]; 0.5 mM compound): 2.1^d*; P50 (Hb [1]; 0.5 mM compound): 25.9^d* mmHg; ΔP50 (Hb [1]; 0.5 mM compound): −4.7 mmHg; N (Hill coefficient) (Hb [1]; 1 mM compound): 1.7^d*; P50 (Hb [1]; 1 mM compound): 23.2^d* mmHg; ΔP50 (Hb [1]; 1 mM compound): −7.4 mmHg; N (Hill coefficient) (Hb [2]; incubation 4 h): 2.1 ± 0.1; ΔP50 (Hb [2]; incubation 4 h): −4.3 mmHg; N (Hill coefficient) (Hb [2]; incubation 6 h): 2.0 ± 0.2; ΔP50 (Hb [2]; incubation 6 h): −5.1 mmHg; N (Hill coefficient) (Hb [2]; incubation 10 h): 2.0 ± 0.1; ΔP50 (Hb [2]; incubation 10 h): −4.5 mmHg; N (Hill coefficient) (Hb [2]; incubation 12 h): 2.0 ± 0.2; ΔP50 (Hb [2]; incubation 12 h): −5.0 mmHg
